Measurements taken from patent publication US4399124A, “Peptides having immunostimulating properties and pharmaceutical compositions containing them” (Institut Pasteur, priority 1979, dated 1983).
Ends that are not written are not given here.

Columns and labels:
Listeria monocytogenes = assay: Multiplication of Listeria monocytogenes in the liver and the spleen of treated mice; format: in vivo; conditions: 0.5 ml of 10^-4 M i.v. 12 h before i.v. 0.3×10^5 Listeria; NaCl control 7 × 10^7 ± 2.4
Experimental: Mice in four batches of 4 animals were treated under the same conditions as previously. Twelve hours later, the mice were all inoculated, intravenously with 0.3×10^5 Listeria monocytogenes. The table below summarizes the results obtained. Again, the mice treated by the active principles show, in their spleen and especially in their liver, a number of Listeria up to 500 times smaller than in the liver of the control animals.

Salmonella typhimurium = assay: Blood purging of Salmonella typhimurium in treated mice; format: in vivo; conditions: 0.5 ml of 10^-4 M i.v. 12 h before i.v. 2×10^7 Salmonella typhimurium; NaCl control 1.20 × 10^6 ± 0.28
Experimental: The increase in the bactericidal power of the macrophages always accompanying an increase in their ingestion capacities, it was sought to measure the latter with Salmonella typhimurium which necessitates for its phagocytosis, contrary to Listeria monocytogenes, opsonizing antibodies or a considerable stimulation of the hepatic macrophages. For this, the mice were treated under the same conditions as in the preceding experiment but were inoculated with 2×10^7 Salmonella typhimurium intravenously.

Lewis carcinoma (3LL) = assay: Resistance of treated mice to Lewis carcinoma (3LL); format: in vivo, C57B1/6 mice; conditions: product injected 24 hours after inoculation; for Development of the tumor (difference in thickness between tumor paw and contralateral paw): 10^5 3LL cells into plantar pad, measured 9 days later, NaCl control 326 ± 34; for Number of pulmonary metastases: tumor paw amputated, autopsy 20 days after inoculation, NaCl control 5.3 ± 2.7
Experimental: This tumor is maintained in the laboratory as has been described (Fauve, R. M. and Hevin, B., Ann. Immunol. (Inst. Pasteur), 1977, 128C, 923-928). 3LL cells were cultured in Eagle medium supplemented with 15% of foetal calf serum and, after washing and resuspending in Eagle medium without serum, injected in the proportion of 10^5 cells in a volume of […] into the plantar pad of C57B1/6 mice. The difference between the thickness of the paw where the tumor is developed and the contralateral paw enables the development of the tumor to be evaluated.
In all cases, the products tested were injected 24 hours after inoculation of the malignant cells and, 9 days later, after having measured the thickness of the paws, the paw bearing the tumor was amputated and, 11 days later, namely 20 days after inoculation of the tumors, the animals were autopsied and the number of metastatic pumonary nodules counted. The following table summarizes the results obtained.

guinea pig ileon = conditions: cited from earlier work

KPPGF [L5, Lysyl→prolyl→prolyl→glycyl→phenylalanine]
Number of Listeria monocytogenes in the spleen of mice 48 h after infection (Listeria monocytogenes): 1.8 × 10^7 ± 0.28
Number of Salmonella typhimurium per ml of blood 2 h after infection (Salmonella typhimurium): 9.35 × 10^4 ± 7.9 per ml of blood
Development of the tumor (difference in thickness between tumor paw and contralateral paw) (Lewis carcinoma (3LL)): 295 ± 25
Number of pulmonary metastases (Lewis carcinoma (3LL)): 3.7 ± 2

HPPGF [H5, Histidyl→prolyl→prolyl→glycyl→phenylalanine]
Number of Listeria monocytogenes in the spleen of mice 48 h after infection (Listeria monocytogenes): 2.4 × 10^7 ± 1.3
Number of Salmonella typhimurium per ml of blood 2 h after infection (Salmonella typhimurium): 7.15 × 10^4 ± 0.78 per ml of blood
Development of the tumor (difference in thickness between tumor paw and contralateral paw) (Lewis carcinoma (3LL)): 272 ± 41
Number of pulmonary metastases (Lewis carcinoma (3LL)): 0.5 ± 0.10

RPPGF [1-5, Arginyl→prolyl→prolyl→glycyl→phenylalanine]
Number of Listeria monocytogenes in the spleen of mice 48 h after infection (Listeria monocytogenes): 3.1 × 10^7 ± 1
Number of Salmonella typhimurium per ml of blood 2 h after infection (Salmonella typhimurium): 3.05 × 10^5 ± 1.6 per ml of blood
Development of the tumor (difference in thickness between tumor paw and contralateral paw) (Lewis carcinoma (3LL)): 284 ± 33
Number of pulmonary metastases (Lewis carcinoma (3LL)): 0.7 ± 0.11
Activity with respect to the guinea pig ileon (guinea pig ileon): totally inactive
